Assay [1] addresses T1, EPHA2 kinase domain (D596-G900) (Homo sapiens, UniProt P29317).
T1 sequence (P29317 596-900): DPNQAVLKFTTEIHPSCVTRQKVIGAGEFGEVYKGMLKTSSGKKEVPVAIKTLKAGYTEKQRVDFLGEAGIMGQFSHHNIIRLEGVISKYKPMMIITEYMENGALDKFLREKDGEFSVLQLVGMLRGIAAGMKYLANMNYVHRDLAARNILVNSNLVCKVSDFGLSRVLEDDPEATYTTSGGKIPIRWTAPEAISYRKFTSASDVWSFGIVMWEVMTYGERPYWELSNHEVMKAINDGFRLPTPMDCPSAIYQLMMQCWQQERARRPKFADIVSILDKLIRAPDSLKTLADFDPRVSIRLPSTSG
The assay can be described thus: Microscale thermophoresis. It is filed as binding. The conditions noted are these: read-out: KD MST, 25 °C, 5% DMSO, duplicates.

For assay [2], the system named is human colon carcinoma cells. The conditions noted are these: panel of cell lines; cited from earlier work.
The target in assay [3] is T1, EPHA2 kinase domain (D596-G900). The conditions noted are these: read-out: KD MST, reported previously ref 18; cited from earlier work.
The test system of assay [4] is human CRC. The conditions noted are these: cited from earlier work.

pKd: −log10 of the molar value. Where two headings read alike, the source gives them in different places.

Broadly, the pKd is the Kd on a negative log10 scale, so that one unit is a factor of ten. Regarding `Cc1ccc(NC(=O)c2cccc(C(F)(F)F)c2)cc1Nc1nc(-c2cccnc2)nc2c1cnn2C` [Compound 7], the pKd in assay [1] is 8.00. With `COc1cccc(NC(=O)c2ccc(C)c(Nc3nc(-c4cccnc4)nc4c3cnn4C)c2)c1` [Compound 14], the pKd in assay [1] was 8.70.

In the case of `Cc1ccc(C(=O)Nc2cccc(C(F)(F)F)c2)cc1Nc1nc(-c2cccnc2)nc2c1cnn2C` [NVP, NVP-BHG712], the “effect on proliferation of human colon carcinoma cells” value in assay [2] is recorded as “reduce the proliferation”. Take `Cc1ccc(C(=O)Nc2cccc(C(F)(F)F)c2)cc1Nc1nc(-c2cccnc2)nc2nn(C)cc12` [NVPiso]: the pKd in assay [3] was 7.14. Besides, the “effect on proliferation of human colon carcinoma cells” value in assay [2] is reported as “reduce the proliferation”. The “effect on growth of human CRC in mice” value in assay [4] is on record as “inhibited the growth of human CRC in mice”.

(Values after paper PMC10133194 (Chemistry (Weinheim an der Bergstrasse, Germany), 2023).)
